According to patent US20130035326A1 (AMBIT BIOSCIENCES CORPORATION, priority 2009, published 2013):

Tests used:
FLT3 kinase = biological target: T1, FLT3 kinase (Homo sapiens, UniProt P36888); assay: Competition binding assay, FLT3 Kd
T1 construct: made in house; host or cells: T7 phage display or HEK-293 cells
T1 sequence (P36888 27-993): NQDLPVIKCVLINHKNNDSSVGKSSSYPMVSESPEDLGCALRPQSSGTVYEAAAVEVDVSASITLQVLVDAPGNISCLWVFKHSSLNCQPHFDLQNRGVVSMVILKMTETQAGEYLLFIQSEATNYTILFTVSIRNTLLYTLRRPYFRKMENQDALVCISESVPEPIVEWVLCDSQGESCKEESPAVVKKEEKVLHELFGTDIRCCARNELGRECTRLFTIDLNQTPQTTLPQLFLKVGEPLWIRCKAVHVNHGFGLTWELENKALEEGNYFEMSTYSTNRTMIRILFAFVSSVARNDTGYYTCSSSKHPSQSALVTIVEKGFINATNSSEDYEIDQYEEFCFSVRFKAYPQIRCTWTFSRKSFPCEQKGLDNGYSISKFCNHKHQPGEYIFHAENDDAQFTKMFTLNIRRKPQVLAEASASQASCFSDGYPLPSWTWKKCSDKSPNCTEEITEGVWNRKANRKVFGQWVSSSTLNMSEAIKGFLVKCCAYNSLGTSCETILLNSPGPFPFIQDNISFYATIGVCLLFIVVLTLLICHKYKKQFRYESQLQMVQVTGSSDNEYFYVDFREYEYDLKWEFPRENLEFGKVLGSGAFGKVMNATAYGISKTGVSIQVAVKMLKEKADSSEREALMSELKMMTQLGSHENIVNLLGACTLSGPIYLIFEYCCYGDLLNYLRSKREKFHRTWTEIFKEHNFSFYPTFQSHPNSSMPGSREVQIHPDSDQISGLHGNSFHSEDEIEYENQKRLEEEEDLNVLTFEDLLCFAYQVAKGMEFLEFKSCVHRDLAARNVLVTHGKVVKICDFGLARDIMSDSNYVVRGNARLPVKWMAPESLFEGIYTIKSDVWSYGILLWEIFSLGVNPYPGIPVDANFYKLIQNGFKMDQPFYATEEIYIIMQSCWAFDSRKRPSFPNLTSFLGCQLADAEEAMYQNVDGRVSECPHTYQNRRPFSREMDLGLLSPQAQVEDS
Experimental: (§1) In certain embodiments, competition binding assays were performed as described in Fabian et al., Nature Biotechnology 2005, 23,329-336.
(§2) Competition binding assays used herein were developed, validated and performed as described in Fabian et al., Nature Biotechnology 2005, 23,329-336. Kinases were produced as fusions to T7 phage (See, Fabian et al. or WO04/015142) or alternatively, the kinases were expressed in HEK-293 cells and subsequently tagged with DNA for PCR detection (See, WO08/005,310). For the binding assays, streptavidin-coated magnetic beads were treated with biotinylated affinity ligands for 30 min at room temperature to generate affinity resins. The liganded beads were blocked with excess biotin and washed with blocking buffer (SeaBlock (Pierce), 1% BSA, 0.05% Tween 20, 1 mM DTT) to remove unbound ligand and to reduce non-specific binding. Binding reactions were assembled by combining kinase, liganded affinity beads, and test compounds in 1× binding buffer (20% SeaBlock, 0.17×PBS, 0.05% Tween 20, 6 mM DTT). Test compounds were prepared as 100× stocks in DMSO and diluted into the aqueous environment. Kds were determined using an eleven point threefold serial dilutions. DMSO or control compounds were was added to control assays lacking a test compound. Primary screen assays were performed in polypropylene 384-well plates in a final volume of 20-40 μL, while Kd determinations were performed in polystyrene 96-well plates in a final volume of 135 μL. The assay plates were incubated at room temperature with shaking for 1 hour to allow the binding reactions to reach equilibrium, and the affinity beads were washed extensively with wash buffer (1×PBS, 0.05% Tween 20) to remove unbound protein. The beads were then resuspended in elution buffer (1×PBS, 0.05% Tween 20, 0.5 μM non-biotinylated affinity ligand) and incubated at room temperature with shaking for 30 min. The kinase concentration in the eluates was measured by quantitative PCR.

KIT kinase = biological target: T2, KIT kinase (Homo sapiens, UniProt P10721); assay: Competition binding assay, KIT Kd
T2 construct: made in house; host or cells: T7 phage display or HEK-293 cells
T2 sequence (P10721 26-976): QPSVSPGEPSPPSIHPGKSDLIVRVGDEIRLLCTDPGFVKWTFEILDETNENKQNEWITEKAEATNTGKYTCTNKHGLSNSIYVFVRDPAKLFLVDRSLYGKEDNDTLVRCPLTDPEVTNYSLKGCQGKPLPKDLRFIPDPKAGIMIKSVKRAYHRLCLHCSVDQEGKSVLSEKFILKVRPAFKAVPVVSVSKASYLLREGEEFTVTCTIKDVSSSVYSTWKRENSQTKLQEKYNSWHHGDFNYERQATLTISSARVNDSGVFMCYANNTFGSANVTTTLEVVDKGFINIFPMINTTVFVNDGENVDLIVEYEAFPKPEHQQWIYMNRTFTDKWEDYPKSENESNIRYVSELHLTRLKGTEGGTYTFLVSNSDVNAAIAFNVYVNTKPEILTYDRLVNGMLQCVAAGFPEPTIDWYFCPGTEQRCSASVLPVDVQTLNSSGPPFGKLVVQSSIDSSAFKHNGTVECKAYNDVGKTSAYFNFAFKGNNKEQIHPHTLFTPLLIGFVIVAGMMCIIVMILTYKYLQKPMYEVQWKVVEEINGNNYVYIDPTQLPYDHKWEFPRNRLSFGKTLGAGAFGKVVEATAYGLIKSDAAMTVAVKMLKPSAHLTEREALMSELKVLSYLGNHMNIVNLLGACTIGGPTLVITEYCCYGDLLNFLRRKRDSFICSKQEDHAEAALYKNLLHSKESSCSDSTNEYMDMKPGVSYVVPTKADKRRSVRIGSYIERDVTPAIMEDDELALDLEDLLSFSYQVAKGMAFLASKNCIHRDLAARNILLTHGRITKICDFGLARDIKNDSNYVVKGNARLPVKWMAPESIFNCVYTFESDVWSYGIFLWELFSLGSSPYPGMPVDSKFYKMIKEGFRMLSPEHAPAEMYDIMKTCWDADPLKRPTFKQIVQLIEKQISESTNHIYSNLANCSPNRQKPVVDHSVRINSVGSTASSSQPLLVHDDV
Experimental: as §1, §2

CSF-1R kinase = biological target: T3, CSF-1R kinase (Homo sapiens, UniProt P07333); assay: Competition binding assay, CSF-1R Kd
T3 construct: made in house; host or cells: T7 phage display or HEK-293 cells
T3 sequence (P07333 20-972): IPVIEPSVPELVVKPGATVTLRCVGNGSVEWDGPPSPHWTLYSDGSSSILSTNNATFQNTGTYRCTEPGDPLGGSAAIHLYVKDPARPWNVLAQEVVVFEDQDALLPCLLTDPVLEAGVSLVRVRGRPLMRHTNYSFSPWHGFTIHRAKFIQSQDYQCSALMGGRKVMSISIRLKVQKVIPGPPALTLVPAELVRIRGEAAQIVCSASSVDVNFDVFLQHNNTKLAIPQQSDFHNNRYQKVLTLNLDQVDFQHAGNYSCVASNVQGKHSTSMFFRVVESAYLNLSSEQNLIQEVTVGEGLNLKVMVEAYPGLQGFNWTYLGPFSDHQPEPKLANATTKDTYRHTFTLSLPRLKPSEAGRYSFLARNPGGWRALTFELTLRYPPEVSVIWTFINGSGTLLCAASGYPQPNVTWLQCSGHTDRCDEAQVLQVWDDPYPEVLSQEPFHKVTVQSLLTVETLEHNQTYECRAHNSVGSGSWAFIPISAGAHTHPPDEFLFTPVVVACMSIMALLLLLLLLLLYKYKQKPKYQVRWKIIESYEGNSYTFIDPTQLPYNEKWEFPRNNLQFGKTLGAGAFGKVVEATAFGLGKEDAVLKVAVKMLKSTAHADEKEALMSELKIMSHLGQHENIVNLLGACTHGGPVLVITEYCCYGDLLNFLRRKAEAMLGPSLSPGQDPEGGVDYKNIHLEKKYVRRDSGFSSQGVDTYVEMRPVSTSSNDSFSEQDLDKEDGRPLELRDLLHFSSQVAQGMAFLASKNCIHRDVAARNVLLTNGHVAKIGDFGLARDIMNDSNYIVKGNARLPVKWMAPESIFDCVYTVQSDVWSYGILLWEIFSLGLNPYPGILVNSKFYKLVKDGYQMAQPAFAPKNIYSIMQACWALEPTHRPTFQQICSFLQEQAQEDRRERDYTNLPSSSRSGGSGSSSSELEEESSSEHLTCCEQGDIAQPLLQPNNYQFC
Experimental: as §1, §2

MV4-11 cells = assay: MV4-11 cell proliferation assay (Alamar Blue); format: cell-based; details: Homo sapiens, MV4-11, 72 h, 3 days incubation
Experimental: The compounds disclosed herein were tested in an MV4-11 cell proliferation assay to determine their cellular potency against Flt3. MV4-11 cells carry ITD mutation within juxtamembrane domain of Flt3 kinase which renders the kinase constitutively active. […] This assay measures the potency of compounds as Flt3 inhibitors by measuring the reduction of Alamar Blue reagent by viable cells.
MV4-11 cells were grown in an incubator at 37° C. under 5% CO2 in Iscove's media (Celgro) with 10% FBS. The cell density was kept between 1e5 and 8e5 cells/mL.
On day one of the experiment, cells were harvested and spun at 500 g for 5 min at 4° C., the supernatant aspirated and the cells resuspended in Iscove's media with 0.5% FBS. Cell density was maintained at 7.5e5 to achieve maximum viability of the cells. The resuspended cells were incubated at 37° C. in 5% CO2 overnight.
On day two of the experiment, cells were diluted to 6.4e5/mL with Iscove's media with 0.5% FBS. 100 μL of the cell suspension (64,000 cells) were aliquoted into each well of a 96-well TC-treated plate. Compounds were added at 9 different concentrations, with half-log intervals alongside a control reference compound serving as a positive control. Final DMSO concentration was kept at 0.5% and final volume at 200 μL. The cells were then incubated at 37° C. under 5% CO2 for 3 days.
On day five of the experiment, 40 μL of Alamar Blue reagent was added to each well and the mixture was allowed to incubate for 3 hours. Alamar Blue fluorescence was measured using SoftMax Pro software at 560 nm (excitation) and 590 nm (emission). IC50s were generated as an average of duplicates and represents the concentration of test compound that achieves 50% inhibition of cellular proliferation compared to negative control.

| Kd (FLT3 kinase) | Kd (KIT kinase) | Kd (CSF-1R kinase) | IC50 (MV4-11 cells) | Structure (SMILES) |
| --- | --- | --- | --- | --- |
| ≤ 1 nM | 1 to 10 nM | ≤ 10 nM | ≤ 1 nM | CS(=O)(=O)O.Nc1ncc(-c2ccc(CC(=O)Nc3cc(C4(C(F)(F)F)CC4)on3)cc2)cc1F [Example 127, 3-fluoro-5-(4-(2-oxo-2-(5-(1-(trifluoromethybcyclopropybisoxazol-3-ylamino)ethyl)phenyl)pyridin-2-aminium methanesulfonate] |
| 10 to 100 nM | 10 to 100 nM | > 500 nM | 100 to 500 nM | CC(C)(C)c1cc(NC(=O)Cc2ccc(-c3ccc(N)nc3C(F)(F)F)cc2)no1.CS(=O)(=O)O [Example 129, 5-(4-(2-(5-tert-butylisoxazol-3-ylamino)-2-oxoethyl)phenyl)-6-(trifluoromethybpyridin-2-aminium methanesulfonate] |
| ≤ 1 nM | 1 to 10 nM | ≤ 10 nM | ≤ 1 nM | CS(=O)(=O)O.Cc1cc(-c2ccc(CC(=O)Nc3cc(C4(C(F)(F)F)CC4)on3)cc2)cnc1N [Example 130, 3-methyl-5-(4-(2-oxo-2-(5-(1-(trifluoromethybcyclopropybisoxazol-3-ylamino)ethyl)phenyl)pyridin-2-aminium methanesulfonate] |
| ≤ 1 nM | 1 to 10 nM | ≤ 10 nM | 10 to 100 nM | CC(=O)OCC1(c2cc(NC(=O)Cc3ccc(-c4ccc(N)nc4)cc3)no2)CC1 [Example 169] |
| ≤ 1 nM | 1 to 10 nM | ≤ 10 nM | 1 to 10 nM | CC1(c2cc(NC(=O)Cc3ccc(-c4cnc(N)cc4F)cc3)no2)CC1 [Example 170] |
| ≤ 1 nM | 1 to 10 nM | ≤ 10 nM | ≤ 1 nM | CCC1(c2cc(NC(=O)Cc3ccc(-c4ccc(N)nc4)cc3)no2)CC1 [Example 171] |
| ≤ 1 nM | ≤ 1 nM | ≤ 10 nM | 1 to 10 nM | CC1(c2cc(NC(=O)Cc3ccc(-c4cnc(N)cc4Cl)cc3)no2)CC1 [Example 172] |
| ≤ 1 nM | 1 to 10 nM | > 500 nM | 10 to 100 nM | CC(C)(C)c1cc(NC(=O)Cc2ccc(-c3cnc(N)c(S(=O)(=O)C(C)(C)C)c3)cc2)no1 [Example 176] |

More lines, now with the values behind:

| Structure (SMILES) | Kd (FLT3 kinase) | Kd (KIT kinase) | Kd (CSF-1R kinase) | IC50 (MV4-11 cells) |
| --- | --- | --- | --- | --- |
| Cc1nc(N)ccc1-c1ccc(CC(=O)Nc2cc(C(C)(C)C)on2)cc1 [Example 87, 5-(4-(2-(5-tert-butylisoxazol-3-ylamino)-2-oxoethyl)phenyl)-6-methylpyridin-2-aminium methanesulfonate] | ≤ 1 nM | 1 to 10 nM | 10 to 100 nM | 10 to 100 nM |
| CC(C)(CO)c1cc(NC(=O)Cc2ccc(-c3ccc(N)nc3)cc2)no1 [Example 88, 5-(4-(2-(5-(1-hydroxy-2-methylpropan-2-yl)isoxazol-3-ylamino)-2-oxoethyl)phenyl)pyridin-2-aminium methanesulfonate] | ≤ 1 nM | 1 to 10 nM | 10 to 100 nM | 1 to 10 nM |
| COCCNc1ccc(-c2ccc(CC(=O)Nc3cc(C(C)(C)C)on3)cc2)cn1 [Example 89, 5-(4-(2-(5-tert-butylisoxazol-3-ylamino)-2-oxoethyl)phenyl)-N-(2-methoxyethyl)pyridin-2-aminium methanesulfonate] | ≤ 1 nM | 1 to 10 nM | ≤ 10 nM | 1 to 10 nM |
| Cn1nc(C(C)(C)CF)cc1NC(=O)Nc1ccc(-c2ccc(N)nc2)cc1 [Example 90, 5-(4-(3-(3-(1-fluoro-2-methylpropan-2-yl)-1-methyl-1H-pyrazol-5-yl)ureido)phenyl)pyridin-2-aminium acetate] | 1 to 10 nM | 1 to 10 nM | 10 to 100 nM | 100 to 500 nM |
| CC(C)(C)c1cc(NC(=O)Cc2ccc(-c3cnc(N)c(C#N)c3)cc2)no1 [Example 93, 5-(4-(2-(5-tert-butylisoxazol-3-ylamino)-2-oxoethyl)phenyl)-3-cyanopyridin-2-aminium methanesulfonate] | 1 to 10 nM | 1 to 10 nM | ≤ 10 nM | ≤ 1 nM |
| CC(C)(C)c1cc(NC(=O)Cc2ccc(-c3cnc(N)c(C(N)=O)n3)cc2)no1 [Example 114, 5-(4-(2-(5-tert-butylisoxazol-3-ylamino)-2-oxoethyl)phenyl)-3-carbamoylpyrazin-2-aminium methanesulfonate] | ≤ 1 nM | ≤ 1 nM | ≤ 10 nM | ≤ 1 nM |
| CC(C)(C)c1cc(NC(=O)Cc2ccc(-c3cnc4c(c3)CCCN4)cc2)no1 [Example 120, 6-(4-(2-((5-(tert-butyl)isoxazol-3-yl)amino)-2-oxoethyl)phenyl)-1,2,3,4-tetrahydro-1,8-naphthyridin-1-ium methanesulfonate] | ≤ 1 nM | 1 to 10 nM | ≤ 10 nM | 1 to 10 nM |
| Cn1cc(-c2cc(-c3ccc(CC(=O)Nc4cc(C(C)(C)C)on4)cc3)cnc2N)cn1 [Example 154] | ≤ 1 nM | 1 to 10 nM | 10 to 100 nM | 1 to 10 nM |
| CC(C)(C)c1cc(NC(=O)C(N)c2ccc(-c3ccc(N)nc3)cc2)no1 (stereo not shown) [Example 173] | 1 to 10 nM | 10 to 100 nM | > 500 nM | 100 to 500 nM |
| Cc1nc(-c2ccc(CC(=O)Nc3cc(C(C)(C)C)on3)cc2)c(C)nc1N [Example 174] | ≤ 1 nM | 1 to 10 nM | 100 to 500 nM | 10 to 100 nM |
| CC(C)(C)Sc1cc(-c2ccc(CC(=O)Nc3cc(C(C)(C)C)on3)cc2)cnc1N [Example 175] | 1 to 10 nM | 10 to 100 nM | 100 to 500 nM | 10 to 100 nM |
| CC1(c2cc(NC(=O)Cc3ccc(-c4cc(F)c(N)nc4F)cc3)no2)CC1 [Example 177] | ≤ 1 nM | 1 to 10 nM | ≤ 10 nM | ≤ 1 nM |
| CC(C)(C)c1cc(NC(=O)C(F)(F)c2ccc(-c3ccc(N)nc3)cc2)no1 [Example 178] | ≤ 1 nM | 1 to 10 nM | ≤ 10 nM | 1 to 10 nM |
| CC(C)(C)c1cc(NC(=O)Cc2ccc(-c3cnc(N)c([S+]([O-])C(C)(C)C)c3)cc2)no1 (stereo not shown) [Example 179] | ≤ 1 nM | 1 to 10 nM | 100 to 500 nM | 1 to 10 nM |
